Source: patent US8445006B2, “Biomolecular coating for implants” (Georgia Tech Research Corporation, priority 2006, dated 2013)

What was measured:
FAK = FAK phosphorylation Western blotting on ligand-tethered SAMs; assay type: cell-based, murine
Procedure: Cells were detached and gently agitated in serum-free suspension for 45 min to reduce background. Cells were then seeded at 200 cells/mm^2 serum-free for 1 h. Cells were lysed in RIPA buffer (1% Triton X-100, 1% sodium deoxycholate, 0.1% SDS, 150 mM NaCl, 150 mM Tris-HCl (pH 7.2), 350 μg/ml PMSF, 10 μg/ml leupeptin, and 10 μg/ml aprotonin) for 20 min on ice. Samples were pipetted up and down 20 times and centrifuged at 8000 g for 10 min to shear DNA and isolate protein contents. Total protein was quantified using micro-BCA (Pierce). Equal amounts of protein were boiled for 10 min in Laemmli buffer and separated by SDS-PAGE on a 7% gel, transferred to nitrocellulose membranes, and blocked with Blotto (5% nonfat dry milk, 0.20% Tween-20) overnight at 4° C. Membranes were gently rocked in antibodies against FAK and specific phosphorylated FAK tyrosine residues (anti-total FAK at 1 μg/ml, anti-FAK pY397 at 0.35 μg/ml, anti-FAK pY576 at 0.5 μg/ml) for 1 h. After washing with TBS-Tween (20 mM Tris HCl pH 7.6, 137 mM NaCl, 0.1% Tween-20), secondary antibody (biotin-conjugated anti-rabbit IgG; 1:20,000) was added for 1 h, followed by alkaline phosphatase-conjugated anti-biotin antibody (1:10,000) in Blotto. Immunoreactivity was assessed by ECF fluorescent substrate. FAK bands were visualized by a Fuji Image Analyzer and phosphorylation levels normalized to total FAK.

[1] = system: rat femur segmental defect; experiment: 8 mm segmental defect in the rat femur, micro-CT bone formation; assay type: in vivo; conditions: coated PCL scaffolds (20 μg/ml) vs PCL and empty defects; 4 and 12 weeks
Procedure: The ability of GFOGER peptide (SEQ ID NO:1)-coated polymeric scaffolds to heal critical sized defects was examined. […] A 8 mm segmental defect in the rat femur was used to evaluate bone repair. Three experimental groups were evaluated: (i) empty defect controls, (ii) PCL scaffolds, and (iii) GFOGER peptide (SEQ ID NO:1)-coated PCL scaffolds. Polycaprolactone (PCL) is a clinically used polymer widely used in orthopaedic and soft tissue applications. Scaffolds were passively coated with GFOGER peptide (SEQ ID NO:1) (20 μg/ml) as described above. Bone formation was assessed non-invasively via micro-computed tomography (micro-CT) at 4 and 12 weeks. […] No differences in bone formation were observed between PCL and empty defects.

Substance	FAK tyrosine-861 phosphorylation (FAK; among both peptide-tethered surfaces)	FAK tyrosine-397 phosphorylation (FAK; maximum peptide densities, vs RGD-tethered surface)	FAK tyrosine-576 phosphorylation (FAK; vs RGD-functionalized support)	bone formation (micro-CT) [1]
FNIII7-10: monobiotinylated recombinant fibronectin fragment spanning the 7-10th type III repeats of fibronectin; α5β1 integrin ligand	phosphorylated at similar levels	increased almost threefold	significantly higher	
GGYGGGPC(GPP)5GFOGER(GPP)5GPC [GFOGER peptide]				enhancement in bone formation
